Where “and” joins values, the source holds several entries; their conditions need not be identical. Identical values can stand only once.

In data set [1] the test system is CD16 (low affinity allele). The data set is described as follows: Binding to soluble FcγR-MIg fusion on WIL2-S cells, flow cytometry. Conditions: 0, 2, 5, 10, 30 or 100 μg/mL castanospermine in culture media. The procedure:
The immunoglycoproteins produced according to Example 2 were assayed in vitro for binding to soluble Ig-fusion versions of Fcγ receptors, in which the extracellular domain of a receptor is fused to murine IgG2a Fc.
The soluble Fey receptor materials were generated by fusing the extracellular domain of Fcγ Receptors I (Genbank Acc. No. BC032634), IIa (Genbank Acc. No. NM_021642), IIb (Genbank Acc. No. BC031992), and III-V158 (high affinity allele) (Genbank Acc. No. X07934) and III-F158 (low affinity allele), respectively, to a murine IgG2a Fc with a Pro to Ser mutation at residue 238 (MIgG2aP238S). For both forms of Fcγ RIII (CD16), an HE4 leader was cloned onto CD16 amino acids 1-178 and then fused to MIgG2aP238S.
The assays were carried out as follows. […] The cells were then incubated with the desired FcγR-MIg fusion in the same diluent at a concentration of 1 μg/ml on ice for 45 minutes.
The complexes (WIL2-S cells/SMIP/FcγR-MIg) were then incubated with PE conjugated AffiniPure F(Ab')2 Goat Anti-Mouse IgG [Jackson Immunoresearch] (a mouse Fc-specific antibody with minimal cross reactivity with human Fc) at a 1:100 dilution. The cells were analyzed by one-color flow cytometry on a FACsCalibur using CellQuest software (Becton Dickinson).
(In general: In flow cytometry, cells or beads pass a laser one at a time.)

Data set [2] deals with CHO cells transfected with TRU-016. The experiment in a line: Effect of castanospermine concentration on cell viability, density and specific protein production of TRU-016. It is filed as cell-based, Chinese hamster. The note with it: for Viability at Harvest (%): harvest day 8, duplicate flasks, listed as CS. The procedure:
Prior to initiation of the experiments, CHO cells transfected with TRU-016 were grown in shake flasks in Ex-Cell™ 302 CHO serum-free media (SAFC Biosciences) supplemented with 1× non-essential amino acids (MediaTech), 1× sodium pyruvate (MediaTech), 4 mM L-glutamine (MediaTech), 500 nM methotrexate (MP Biomedicals) and 1 mg/L recombinant insulin (Recombulin—GIBCO/Invitrogen Corp.) at 37° C. and 5% carbon dioxide in a humidified incubator. A 200 mM stock concentration of castanospermine (Alexis Biochemicals) was prepared by dilution of the castanospermine in sterile, distilled/deionized water (MediaTech) and filtration through a 13 mm Acrodisc® with a 0.2 μm HT Tuffryn membrane (Pall Corporation). Stock solution was aliquoted into sterile, O-ringed, 0.5 mL microcentrifuge tubes (Fisherbrand, Fisher Scientific) and frozen at −20° C. Approximately 1 hour prior to initiation of experiments, needed aliquots were thawed at room temperature and the contents of each vial mixed well by vortexing.
For each experiment, cells in log phase growth were seeded in the above medium into a total volume of 60 mL in 250 mL shaker flasks at a density of 200,000 cells/mL and CS added at the concentration to be tested. Final CS concentrations of 800 μM, 400 μM, 200 μM, 100 μM, 50 μM, 25 μM and 0 μM were each tested in duplicate flasks. All cultures were incubated at 37° C. and 5% carbon dioxide in a humidified incubator and monitored at least every other day for viable cell density and overall cell viability.
Cultures were harvested on day 8 when overall cell viability was 50-70% (Expt. 1) and 30-50% (Expt. 2). Cells and cellular debris were removed by centrifugation in a Sorvall Super T21 at 3000 rpm for 20 minutes after which the supernatant was sterile filtered through a Millipore Steriflip unit with a 0.22 μm Millipore Express Plus membrane and stored at 2-8° C. until purification.

On the set-up of data set [3]: species or system BALB/c mice. Conditions: mouse, in vivo, iv, 200 ug. The procedure: Female BALB/c mice were injected i.v. with 200 μg of TRU-016 test protein (TRU-016 produced by untreated CHO cells or by CHO cells treated with 200 μM DMJ, […] or 200 μM castanospermine) at time 0. Serum samples were collected (3 mice per time point) at 15 min, 2, 6, 24, 48, 72, 96, and 192 hours post injection. The serum concentration of each TRU-016 test sample was determined in a FACS-based binding assay using the CD37+ Ramos human cell line. CD37+ Ramos cells (5×10^5 cells/well) were incubated in 96 well flat bottom plates along with the serum sample to be tested. Spiked serum samples were used for the standard curves. Cells were incubated at 4° C. for an hour and washed before addition of the detection antibody. Binding of TRU-016 test protein to CD37+ Ramos cells was detected using a fluorescein-conjugated goat anti-human IgG Fcγ fragment-specific antibody. Standard curves were used to construct a binding curve as a function of antigen concentration. Briefly, standard curves consisted of various known concentrations of the TRU-016 test protein spiked into normal mouse serum diluted 1:20 in FACS buffer. The standard curves were run in duplicate on each plate. Mean fluorescence intensities (MFI) from the FACS analysis were imported into Softmax Pro software and were used to calculate serum concentrations of the TRU-016 test protein.

Data set [4] has as its target T1, CD37 cell surface receptor (Homo sapiens, UniProt P11049).
T1 construct: Human PBMCs are isolated over LSM density gradients; endogenous in cells; host or cells: human PBMC
T1 sequence (P11049 1-281): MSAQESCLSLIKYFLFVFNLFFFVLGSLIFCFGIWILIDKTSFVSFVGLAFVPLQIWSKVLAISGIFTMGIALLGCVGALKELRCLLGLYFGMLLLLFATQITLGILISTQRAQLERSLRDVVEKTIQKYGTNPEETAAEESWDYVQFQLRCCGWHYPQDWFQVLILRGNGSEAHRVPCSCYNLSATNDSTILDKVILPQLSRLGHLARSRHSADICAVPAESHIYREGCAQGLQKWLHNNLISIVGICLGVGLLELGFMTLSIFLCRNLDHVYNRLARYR
The experiment in a line: Binding of TRU-016 to B and non-B lymphocytes of human PBMC, two-color flow cytometry. The procedure:
Experiments may be performed to confirm that the binding specificity of the parent antibody to the CD37 cell surface receptor is preserved in TRU-016. Human PBMCs are isolated over LSM density gradients and incubated with unconjugated TRU-016 and PE-conjugated anti-human CD19. Cells are washed and incubated with 1:100 FITC GAH IgG (Fc specific) for 45 minutes on ice. Cells are washed and analyzed by two-color flow cytometry on a FACsCalibur instrument using Cell Quest software. Cells are gated for B lymphocytes or non-B lymphocytes by CD19 staining.

Turning to `O[C@H]1[C@H](O)[C@@H](O)CN2CC[C@H](O)[C@H]12` [castanospermine], the “CD16 binding (geometric mean fluorescence intensity) of TRU-015 purified protein produced by CHO cells cultured with the modifier” value in data set [1] is given as “dose-dependent increase”. Moreover, the “reduction of TRU-016 protein production” value in data set [2] (400 μm CS) was “approximately 40%”. Moreover, the “Viability at Harvest (%)” value is 53.9% and 54.5% in data set [2] (CS 25 μM); 49.4% and 50.0% in data set [2] (CS 50 μM); 54.4% and 54.6% in data set [2] (CS 100 μM); 55.5% and 51.1% in data set [2] (CS 200 μM); 65.7% and 68.2% in data set [2] (CS 400 μM); 70.6% and 65.2% in data set [2] (CS 800 μM). In addition, the “cell viability and growth as indicated by integral cell area (ICA)” value in data set [2] (CS 25-800 μM) is listed as “did not appear to be significantly affected”. Besides, the immunoglycoprotein production result in data set [2] (increasing concentrations of castanospermine, 25-800 μM) is recorded as “appeared to reduce”.
On to “TRU-016: recombinant single chain protein (SMIP) that binds CD37; G28-1 binding domain, modified hinge, human IgG1 CH2 and CH3; SEQ ID NO: 2”, for which, in data set [3], the “effect of carbohydrate modifier on half-life or other pharmacokinetic parameters” value is “no significant effect”. Also, in data set [4] (CD19 positive gate), the “TRU-016 concentration at saturation of FITC signal on the B lymphocyte (CD19 positive gate)” value is on record as “approximately 1 μg/mL” and the “mean fluorescence intensity (MFI) at saturation” value is around 1000. Moreover, the “staining of the non-B lymphocyte population” value in data set [4] (non-B lymphocyte gate) is reported as “detectable, but very low”.
